Laboratory results from the NIST ThermoML archive (doi:10.1016/j.jct.2004.06.009).

Assay: molar heat capacity at constant pressure
Details: 101.33 kPa

CC12CC3CC(C1)CC(C)(C3)C2 [1,3-dimethyladamantane]
Details	molar heat capacity at constant pressure [J/K/mol]
8.24 K, Crystal 2	2.062
8.72 K, Crystal 2	2.425
9.2 K, Crystal 2	2.838
9.68 K, Crystal 2	3.291
10.16 K, Crystal 2	3.758
10.73 K, Crystal 2	4.336
11.38 K, Crystal 2	5.1
12.04 K, Crystal 2	5.875
12.71 K, Crystal 2	6.75
13.36 K, Crystal 2	7.626
14.03 K, Crystal 2	8.543
14.69 K, Crystal 2	9.462
15.35 K, Crystal 2	10.41
16.02 K, Crystal 2	11.41
16.68 K, Crystal 2	12.45
17.35 K, Crystal 2	13.38
18.02 K, Crystal 2	14.36
18.7 K, Crystal 2	15.27
19.36 K, Crystal 2	16.17
20.03 K, Crystal 2	17.19
20.92 K, Crystal 2	18.43
22.01 K, Crystal 2	19.87
23.09 K, Crystal 2	21.29
24.18 K, Crystal 2	22.59
25.26 K, Crystal 2	23.98
26.35 K, Crystal 2	25.2
27.44 K, Crystal 2	26.35
30.7 K, Crystal 2	29.56
31.79 K, Crystal 2	30.56
32.87 K, Crystal 2	31.44
33.96 K, Crystal 2	32.41
35.04 K, Crystal 2	33.24
36.12 K, Crystal 2	34.11
37.2 K, Crystal 2	34.83
38.29 K, Crystal 2	35.57
39.37 K, Crystal 2	36.35
40.44 K, Crystal 2	37.09
41.52 K, Crystal 2	37.79
42.59 K, Crystal 2	38.45
43.67 K, Crystal 2	39.15
44.74 K, Crystal 2	39.94
45.82 K, Crystal 2	40.58
46.91 K, Crystal 2	41.26
49.08 K, Crystal 2	42.53
50.15 K, Crystal 2	43.17
51.21 K, Crystal 2	43.97
52.28 K, Crystal 2	44.55
53.34 K, Crystal 2	45.28
54.4 K, Crystal 2	45.93
55.46 K, Crystal 2	46.84
56.52 K, Crystal 2	47.67
58.46 K, Crystal 2	49.49
60.51 K, Crystal 2	51.1
62.53 K, Crystal 2	52.46
63 K, Crystal 2	52.93
63.91 K, Crystal 2	53.57
64.83 K, Crystal 2	54.06
65.75 K, Crystal 2	54.71
66.66 K, Crystal 2	55.08
67.58 K, Crystal 2	55.66
68.49 K, Crystal 2	56.24
69.41 K, Crystal 2	57.05
71.4 K, Crystal 2	57.87
73.43 K, Crystal 2	58.84
75.49 K, Crystal 2	59.92
77.45 K, Crystal 2	60.94
79.6 K, Crystal 2	62.15
81.55 K, Crystal 2	63.11
82.51 K, Crystal 2	63.18
83.54 K, Crystal 2	64.04
84.58 K, Crystal 2	64.38
85.62 K, Crystal 2	65.28
86.66 K, Crystal 2	66.25
87.69 K, Crystal 2	66.5
88.73 K, Crystal 2	67.15
89.76 K, Crystal 2	68.17
90.79 K, Crystal 2	68.78
91.82 K, Crystal 2	69.62
92.85 K, Crystal 2	70.65
93.88 K, Crystal 2	71.07
94.91 K, Crystal 2	71.83
95.93 K, Crystal 2	72.84
96.96 K, Crystal 2	73.52
97.98 K, Crystal 2	74.02
99.01 K, Crystal 2	74.65
100.04 K, Crystal 2	75.78
101.06 K, Crystal 2	77.14
102.08 K, Crystal 2	77.29
103.1 K, Crystal 2	78.16
104.13 K, Crystal 2	78.65
105.15 K, Crystal 2	79.24
106.17 K, Crystal 2	79.77
107.18 K, Crystal 2	80.75
108.2 K, Crystal 2	81.19
109.21 K, Crystal 2	82.31
110.22 K, Crystal 2	83.3
111.24 K, Crystal 2	83.76
112.25 K, Crystal 2	84.74
113.26 K, Crystal 2	85.56
114.27 K, Crystal 2	86.06
115.29 K, Crystal 2	86.71
116.3 K, Crystal 2	87.61
117.31 K, Crystal 2	88.53
118.32 K, Crystal 2	89.31
119.33 K, Crystal 2	90.06
120.34 K, Crystal 2	90.8
121.35 K, Crystal 2	91.66
122.36 K, Crystal 2	92.56
123.36 K, Crystal 2	93.09
124.37 K, Crystal 2	94.23
125.38 K, Crystal 2	94.72
126.39 K, Crystal 2	95.77
127.4 K, Crystal 2	96.32
128.4 K, Crystal 2	97.15
129.4 K, Crystal 2	97.61
130.4 K, Crystal 2	98.84
131.41 K, Crystal 2	99.23
132.41 K, Crystal 2	99.74
133.41 K, Crystal 2	100.92
135.41 K, Crystal 2	102.12
136.41 K, Crystal 2	102.85
137.41 K, Crystal 2	103.66
138.41 K, Crystal 2	104.15
139.41 K, Crystal 2	105.02
140.41 K, Crystal 2	106
141.4 K, Crystal 2	106.56
142.4 K, Crystal 2	107.72
143.4 K, Crystal 2	107.89
144.4 K, Crystal 2	108.44
145.37 K, Crystal 2	109.47
146.37 K, Crystal 2	110.32
147.36 K, Crystal 2	111.05
148.36 K, Crystal 2	112.04
149.35 K, Crystal 2	112.85
150.34 K, Crystal 2	113.58
151.33 K, Crystal 2	114.44
153.32 K, Crystal 2	115.43
154.31 K, Crystal 2	116.66
155.3 K, Crystal 2	117.21
156.29 K, Crystal 2	118.03
157.28 K, Crystal 2	118.57
158.26 K, Crystal 2	119.55
159.25 K, Crystal 2	119.81
160.24 K, Crystal 2	120.34
161.21 K, Crystal 2	122.14
162.2 K, Crystal 2	123.06
163.18 K, Crystal 2	123.69
164.17 K, Crystal 2	123.65
165.15 K, Crystal 2	125.01
166.14 K, Crystal 2	125.6
167.12 K, Crystal 2	126.03
168.11 K, Crystal 2	127.28
169.09 K, Crystal 2	127.61
170.07 K, Crystal 2	128.22
171.06 K, Crystal 2	129.42
172.04 K, Crystal 2	130.05
173.02 K, Crystal 2	130.24
174 K, Crystal 2	130.98
174.98 K, Crystal 2	131.94
175.95 K, Crystal 2	133.61
177.89 K, Crystal 2	134.48
178.87 K, Crystal 2	134.87
179.85 K, Crystal 2	135.66
180.58 K, Crystal 2	136.61
181.56 K, Crystal 2	136.89
182.53 K, Crystal 2	137.98
183.51 K, Crystal 2	138.41
184.48 K, Crystal 2	139.16
185.46 K, Crystal 2	140.28
186.43 K, Crystal 2	141.09
187.4 K, Crystal 2	142.02
189.35 K, Crystal 2	143.47
190.3 K, Crystal 2	143.86
194.17 K, Crystal 2	146.97
195.13 K, Crystal 2	148.03
197.07 K, Crystal 2	149.99
198.04 K, Crystal 2	150.21
198.92 K, Crystal 2	151.08
199.88 K, Crystal 2	152.08
201.81 K, Crystal 2	154.34
202.78 K, Crystal 2	154.59
203.74 K, Crystal 2	155.44
204.71 K, Crystal 2	156.27
205.67 K, Crystal 2	156.84
206.64 K, Crystal 2	157.68
207.51 K, Crystal 2	158.4
208.55 K, Crystal 2	158.98
209.51 K, Crystal 2	160.26
210.47 K, Crystal 2	161.38
211.43 K, Crystal 2	162.2
212.27 K, Crystal 2	162.95
213.23 K, Crystal 2	163.97
214.19 K, Crystal 2	164.82
215.15 K, Crystal 2	165.6
216.12 K, Crystal 2	166.3
217.08 K, Crystal 2	166.99
218.03 K, Crystal 2	167.93
218.99 K, Crystal 2	169.35
219.95 K, Crystal 2	170.97
225.79 K, Crystal 1	199.33
226.66 K, Crystal 1	199.97
227.53 K, Crystal 1	201.06
228.4 K, Crystal 1	201.46
230.04 K, Crystal 1	202.98
230.88 K, Crystal 1	203.84
230.9 K, Crystal 1	202.87
231.76 K, Crystal 1	203.35
232.42 K, Crystal 1	205.24
233.95 K, Crystal 1	206.13
235.48 K, Crystal 1	207.28
237 K, Crystal 1	208.26
238.51 K, Crystal 1	209.76
240.02 K, Crystal 1	210.33
241.45 K, Crystal 1	210.84
242.96 K, Crystal 1	212.78
244.46 K, Crystal 1	214.29
251.29 K, Liquid	225.79
252.68 K, Liquid	226.58
254.08 K, Liquid	227.55
255.49 K, Liquid	228.41
256.89 K, Liquid	229.48
258.3 K, Liquid	230.29
259.7 K, Liquid	231
261.1 K, Liquid	232.08
262.5 K, Liquid	232.76
263.89 K, Liquid	233.85
265.29 K, Liquid	235.31
266.68 K, Liquid	235.54
268.08 K, Liquid	236.58
269.46 K, Liquid	237.84
270.85 K, Liquid	239.09
272.24 K, Liquid	239.93
273.56 K, Liquid	240.47
274.94 K, Liquid	241.87
277.72 K, Liquid	243.58
279.1 K, Liquid	244.65
280.48 K, Liquid	245.61
281.85 K, Liquid	246.79
283.23 K, Liquid	247.54
284.61 K, Liquid	248.53
285.98 K, Liquid	249.45
287.36 K, Liquid	250.28
288.73 K, Liquid	251.39
290.1 K, Liquid	252.27
291.46 K, Liquid	253.18
292.84 K, Liquid	254.46
294.2 K, Liquid	254.72
295.48 K, Liquid	256.04
296.85 K, Liquid	256.83
298.22 K, Liquid	258.31
299.58 K, Liquid	259.27
300.95 K, Liquid	260.05
302.3 K, Liquid	260.79
303.66 K, Liquid	261.66
306.37 K, Liquid	263.51
307.73 K, Liquid	264.36
309.08 K, Liquid	265.4
310.42 K, Liquid	266.59
311.76 K, Liquid	267.05
313.08 K, Liquid	268.41
314.41 K, Liquid	269.34
315.76 K, Liquid	270.21
317 K, Liquid	270.69
318.33 K, Liquid	272.36
319.67 K, Liquid	272.93
321.02 K, Liquid	273.59
322.36 K, Liquid	274.52
323.7 K, Liquid	275.69
325.04 K, Liquid	276.85
326.38 K, Liquid	276.96
327.72 K, Liquid	278.17
329.06 K, Liquid	279.49
330.4 K, Liquid	280.25
331.73 K, Liquid	281.52
334.39 K, Liquid	283.43
335.72 K, Liquid	284.46
337.04 K, Liquid	285.09
338.23 K, Liquid	285.9
339.56 K, Liquid	286.67
340.88 K, Liquid	287.92
342.17 K, Liquid	289.16
343.47 K, Liquid	290.19
344.79 K, Liquid	291.02
346.09 K, Liquid	292.18
347.39 K, Liquid	292.25
348.71 K, Liquid	293.14
350.02 K, Liquid	294.11
351.34 K, Liquid	294.99
352.65 K, Liquid	295.66
353.96 K, Liquid	296.46
355.26 K, Liquid	297.51
356.57 K, Liquid	298.73
357.86 K, Liquid	298.97
359 K, Liquid	299.74
